Measured values from patent US20060240494A1, “Biocidal molecules, macromolecular targets and methods of production and use” (priority 2000, published 2006).
Read-outs that look alike come from different tables or passages of the source. Non-standard residues stand in square brackets, D forms with d. No end group written: not given here. *: point of attachment. Biotin = O=C1N[C@H]2[C@H](CS[C@H]2CCCCC(=O)*)N1

Tests used:
recombinant E. coli DnaK = biological target: T1, recombinant E. coli DnaK (Escherichia coli, UniProt P0A6Y8); test: EnzChek ATPase assay, recombinant DnaK; format: biochemical; settings: 50 molar equivalents of peptide; 22° C., 30 min; UV absorbance at 360 nm
T1 construct: purchased StressGen, Victoria, Canada
T1 sequence (P0A6Y8 whole entry): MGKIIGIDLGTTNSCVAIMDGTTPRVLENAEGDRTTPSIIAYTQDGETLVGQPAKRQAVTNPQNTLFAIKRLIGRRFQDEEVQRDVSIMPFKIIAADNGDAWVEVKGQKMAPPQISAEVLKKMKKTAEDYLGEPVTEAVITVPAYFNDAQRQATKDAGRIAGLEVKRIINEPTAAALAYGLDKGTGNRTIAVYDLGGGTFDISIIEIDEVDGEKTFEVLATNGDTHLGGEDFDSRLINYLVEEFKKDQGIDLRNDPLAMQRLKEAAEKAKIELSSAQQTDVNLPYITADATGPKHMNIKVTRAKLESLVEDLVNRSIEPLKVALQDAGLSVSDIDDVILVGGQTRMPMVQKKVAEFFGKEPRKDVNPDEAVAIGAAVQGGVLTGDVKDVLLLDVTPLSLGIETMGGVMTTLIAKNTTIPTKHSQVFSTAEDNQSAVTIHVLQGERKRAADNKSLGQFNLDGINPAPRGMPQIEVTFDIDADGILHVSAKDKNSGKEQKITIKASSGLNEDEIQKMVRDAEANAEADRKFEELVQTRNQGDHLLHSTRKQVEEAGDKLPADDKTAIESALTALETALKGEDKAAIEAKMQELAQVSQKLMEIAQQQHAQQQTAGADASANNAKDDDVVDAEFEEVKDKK
Excerpt: To determine whether the proline-rich antibacterial peptides that were predicted to bind to DnaK between the peptide binding pocket and the C-terminus would interfere with ATPase activity, a recently developed continuous spectrophotometric (colorimetric) ATPase activity assay [Rieger, C. E. et al, (1997) Anal. Biochem. 246: 86-95] was used. This assay uses using 2-amino-6-mercapto-7-methylpurine ribonucleoside (MESG)/purine nucleoside phosphorylase reaction to detect the released inorganic phosphate (EnzChek ATPase determination kit from Molecular Probes, Eugene, USA). Assays were performed in 500 μL tubes in duplicates in a total volume of 125 μL containing 20 mM tris(hydroxymethyl)amino-ethane (Tris)-HCl, pH 7.6, 1 mM MgCl2, […] (except in assaying the baseline), 5 μg of DnaK (recombinant DnaK protein from StressGen,Victoria, Canada) and 50 molar equivalents of the particular peptide, MESG and the purine nucleoside phosphorylase recommended by the manufacturer. After incubation at 22° C. for 30 min, 100 μL of the reaction mixture was transferred to a quartz cuvette and the ultraviolet (UV) absorbance at 360 nm was measured. The assay was run in a miniaturized form to increase the concentration and therefore the enzymatic activity of DnaK. In a larger, standard format the ATPase activity of DnaK without peptide addition was 6 pmol/μg/min, in line with the published data of 4 pmol/μg/min [Liberek, K. et al, (1991) Proc. Natl. Acad. Sci. USA 88: 2874-2878].

[1] = biological target: E. coli DnaK fragment aa583-615 (D-E helix hinge) (Escherichia coli, UniProt P0A6Y8); test: Fluorescence polarization with synthetic DnaK fragment aa583-615; format: binding; settings: Tris HCl at pH 8.0; for binding to E. coli D-E helix hinge region aa583-615 at high concentration: 128 μM fragment
Chain of E. coli DnaK fragment aa583-615 (D-E helix hinge) (P0A6Y8 584-616): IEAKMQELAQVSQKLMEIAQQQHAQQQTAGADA
Description: The binding of the synthetic DnaK fragments to their fluorescein-labeled pyrrhocoricin counterparts was also assessed in solution, by fluorescence polarization [Lundblad, J. R. et al, (1996) Mol. Endocrinol. 10: 607-612]. For these experiments, the unlabeled peptides were serially diluted in PBS (pH 7.4) or 0.1 M Tris-HCl (pH 8.0) containing 0.1 M ethylene-diamine-tetraacetic acid (EDTA) in 50 μL final volume in 6×50 mm disposable glass borosilicate tubes. The fluoresceinated peptides were added to each tube in a 50 μL aliquot to a final concentration of 1 nM and tubes were incubated at 37° C. for 5 minutes. The extent of fluorescence anisotropy was measured on a Beacon 2000 fluorescence polarization instrument (PanVera, Madison, Wis.) and calculated as millipolarization values. The filters used were 485 nm excitation and 535 nm emission with 3 nm band width. Non-linear curve fitting was done by using a dose-response logistical transition [y=a0+a1/(1+x/a2)^a^3] and the Levenberg-Marquardt Algorithm within the SlideWrite software package. The provided Kd value (a2 coefficient) was calculated by the program.
To quantitatively characterize the pyrrhocoricin—D-E helix interaction, the complete binding curves were measured for E. coli DnaK fragments aa583-615 and aa588-615, both of SEQ ID NO: 10.

LPS from S. typhimurium = settings: nitrocellulose membrane-bound LPS
DnaK = DnaK (Escherichia coli, UniProt P0A6Y8); settings: 1 μg DnaK; biotin-labeled peptide
Chain of DnaK (P0A6Y8 whole entry, the tested form may be a part): as the sequence (P0A6Y8 whole entry) above

[2] = biological target: E. coli DnaK aa397-439, conventional peptide binding pocket (Escherichia coli, UniProt P0A6Y8); settings: non-specific binding; 10 μg/mL biotin-labeled peptide
Chain of E. coli DnaK aa397-439, conventional peptide binding pocket (P0A6Y8 397-439): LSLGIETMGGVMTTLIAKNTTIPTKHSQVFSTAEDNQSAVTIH
Description: (§1) A control strip was stained with amido black 10B to verify the presence of all DnaK fragments on the nitrocellulose sheet.

GroEL = GroEL (Escherichia coli, UniProt P0A6F5); settings: nitrocellulose membrane-bound protein; 10 μg/ml peptide
Chain of GroEL (P0A6F5 2-548 limits assumed): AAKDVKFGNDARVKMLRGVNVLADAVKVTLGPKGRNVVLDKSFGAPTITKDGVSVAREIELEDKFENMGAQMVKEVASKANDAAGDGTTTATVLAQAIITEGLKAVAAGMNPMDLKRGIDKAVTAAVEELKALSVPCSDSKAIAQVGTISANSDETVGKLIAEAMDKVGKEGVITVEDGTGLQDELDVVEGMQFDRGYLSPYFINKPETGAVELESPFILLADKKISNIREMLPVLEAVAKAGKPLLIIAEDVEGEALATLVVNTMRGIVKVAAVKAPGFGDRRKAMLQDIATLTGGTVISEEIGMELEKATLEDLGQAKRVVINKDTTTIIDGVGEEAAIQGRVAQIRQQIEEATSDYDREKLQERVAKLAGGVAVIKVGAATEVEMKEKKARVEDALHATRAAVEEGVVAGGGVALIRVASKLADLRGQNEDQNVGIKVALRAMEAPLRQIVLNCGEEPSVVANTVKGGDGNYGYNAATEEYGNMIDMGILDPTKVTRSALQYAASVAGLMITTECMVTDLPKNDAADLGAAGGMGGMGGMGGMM

E. coli LPS = settings: nitrocellulose membrane-bound LPS
Hsp70 = Hsp70 (Homo sapiens, UniProt P0DMV8); settings: nitrocellulose membrane-bound protein; 10 μg/ml peptide
Chain of Hsp70 (P0DMV8 whole entry, the tested form may be a part): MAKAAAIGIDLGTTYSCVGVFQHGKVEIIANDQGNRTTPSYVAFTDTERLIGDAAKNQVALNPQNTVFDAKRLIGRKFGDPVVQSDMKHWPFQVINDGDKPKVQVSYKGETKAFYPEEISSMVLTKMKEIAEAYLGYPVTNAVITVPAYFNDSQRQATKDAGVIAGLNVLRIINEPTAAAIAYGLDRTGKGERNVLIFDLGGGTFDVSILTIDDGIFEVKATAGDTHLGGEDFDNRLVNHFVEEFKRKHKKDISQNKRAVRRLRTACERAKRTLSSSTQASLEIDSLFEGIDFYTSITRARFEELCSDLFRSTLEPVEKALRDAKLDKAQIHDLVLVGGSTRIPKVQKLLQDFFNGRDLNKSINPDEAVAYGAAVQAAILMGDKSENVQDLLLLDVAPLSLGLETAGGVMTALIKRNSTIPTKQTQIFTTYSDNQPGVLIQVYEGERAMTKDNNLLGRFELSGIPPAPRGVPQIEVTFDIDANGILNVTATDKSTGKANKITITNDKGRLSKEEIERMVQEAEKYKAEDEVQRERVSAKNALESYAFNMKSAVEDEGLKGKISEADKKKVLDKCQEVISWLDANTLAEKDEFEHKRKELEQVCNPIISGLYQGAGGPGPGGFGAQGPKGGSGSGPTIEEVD

[3] = biological target: E. coli DnaK aa583-615, hinge region between helices D and E (Escherichia coli, UniProt P0A6Y8); settings: 5 μg fragment; 10 μg/mL biotin-labeled peptide
Chain of E. coli DnaK aa583-615, hinge region between helices D and E (P0A6Y8 584-616 limits assumed): as the sequence (P0A6Y8 584-616) above
Description: as §1

[4] = system: E. coli strains (including TG-1, or K-12)
[5] = Hoffmann et al, 1999; cited from earlier work
[6] = system: alkaline phosphatase activities of live E. coli TG-1 cells; format: cell-based
[7] = system: β-galactosidase activities of live E. coli TG-1 cells; format: cell-based
[8] = biological target: T2, S. aureus DnaK 554-585 (D-E helix fragment) (Staphylococcus aureus, UniProt P45554); test: Fluorescence polarization with S. aureus DnaK D-E helix fragment; format: binding; settings: Tris HCl at pH 8.0
T2 sequence (P45554 554-585 limits assumed): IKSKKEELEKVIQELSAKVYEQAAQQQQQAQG

[9] = biological target: blocked E. coli DnaK fragment aa591-615 (Escherichia coli, UniProt P0A6Y8); format: binding
Chain of blocked E. coli DnaK fragment aa591-615 (P0A6Y8 592-616 limits assumed): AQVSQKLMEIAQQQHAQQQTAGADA

E. coli D22 = settings: Otvos et al, 2000, Protein Science; cited from earlier work
[10] = peptide 32 μg/mL, live E. coli TG-1, four independent assays
[11] = peptide 32 μg/mL, live E. coli TG-1, three independent assays

## Cecropin A: membrane-active antimicrobial peptide; purchased from Bachem (KWKLFKKIEKVGQNIRDGIIKAGPAVAVVGQATQIAK)
Recombinant E. coli DnaK
  effect on ATPase activity of recombinant DnaK: did not influence

## NTDGSTDYGILQINSR
[1]; labeled peptide 1 nM
  binding to E. coli D-E helix hinge region aa583-615: failed to bind

## Biotin-KVDKGSYLPRPTPPRPIYNRN [biotin-K-pyrrhocoricin]
LPS from S. typhimurium
  binding to S. typhimurium LPS on Western-blot: did not label LPS bands
DnaK
  binding to DnaK on the peptide blot: bound strongly
[2]
  dot blot binding to peptide-binding pocket fragment: similarly bound
GroEL
  binding to GroEL on the peptide blot: very weak peptide binding
E. coli LPS
  binding to E. coli LPS on Western-blot: did not label LPS bands
Hsp70
  binding to Hsp70 on the peptide blot: very weak peptide binding
[3]
  dot blot binding to D-E helix hinge fragment: bound
[4]
  concentration range killing E. coli strains: submicromolar range

## native glycosylated drosocin: native drosocin glycopeptide with a disaccharide in the mid-chain position (GKPRPYSPRPTSHPRPIRV; also: O-glycosylated disaccharide in mid-chain position; UniProt P36193 22-40, looked up)
[5]
  antibacterial activity when injected into mice: no antibacterial activity

## Conantokin G
[6]
  Inhibition of enzymatic activity after 1 hour (%) Alkaline Phosphatase: (−3) ± 23%
[7]
  Inhibition of enzymatic activity after 1 hour (%) β-Galactosidase: (−10) ± 10%

## N—F-drosocin: drosocin with fluorescein label attached at the N-terminus (fluorescein-KGKPRPYSPRPTSHPRPIRV)
[8]
  binding to S. aureus D-E helix fragment: failed to bind
[9]
  binding to blocked E. coli DnaK fragment aa591-615: failed to bind
[1]
  binding to E. coli D-E helix hinge region aa583-615 at high concentration: some binding

## D-pyrrhocoricin: SEQ ID NO: 3 with all amino acids in the D configuration; inactive analog ([dV][dD][dK]G[dS][dY][dL][dP][dR][dP][dT][dP][dP][dR][dP][dI][dY][dN][dR][dN])
E. coli D22
  killing of E. coli D22: completely inactive
[6]; [10]
  Inhibition of enzymatic activity after 1 hour (%) Alkaline Phosphatase: (−6) ± 16%
[7]; [11]
  Inhibition of enzymatic activity after 1 hour (%) β-Galactosidase: (−4) ± 43%
Recombinant E. coli DnaK
  effect on ATPase activity of recombinant DnaK: negligible effect

## Magainin 2: antibacterial peptide that kills bacteria by disintegrating the membrane; from Bachem (GIGKFLHSAKKFGKAFVGEIMNS)
[6]; [10]
  Inhibition of enzymatic activity after 1 hour (%) Alkaline Phosphatase: (−23) ± 38%
[7]; [11]
  Inhibition of enzymatic activity after 1 hour (%) β-Galactosidase: (−50) ± 55%
Recombinant E. coli DnaK
  effect on ATPase activity of recombinant DnaK: did not influence

## N—F-apidaecin: apidaecin with fluorescein label attached at the N-terminus
[8]
  binding to S. aureus D-E helix fragment: failed to bind
[1]
  binding to E. coli D-E helix hinge region aa583-615 at high concentration: some binding
